# Earlier results in patent US10213524B2, “Coating comprising strontium for body implants” (ELOS MEDTECH PINOL A/S, priority 2012, dated 2019).
# Tested on: mice
# Conditions: intravenous injection
structure (smiles),measurement,value
CC(=O)[O-].CC(=O)[O-].[Sr+2] [strontium acetate],toxic concentration (can cause mortality),~40 mg/kg Sr
